# Results: patent US4568685A, “N-[(1H-1,2,4-Triazol-1-yl)alkyl]-arylamides” (American Cyanamid Company, priority 1984, dated 1986)
# Structures can show the parent of a compound that is named as a salt.
# Test system: spontaneously hypertensive rats
# Test: Hypotensive activity in spontaneously hypertensive rats (mean arterial blood pressure)
# Assay type: in vivo, spontaneously hypertensive rats of the Okamoto strain
# Conditions: gavage, about 100 mg/kg or less, two doses 24 hours apart, measured at about 28 hours; average MABP of the SHR 170 ±1.5 mm Hg; number of rats in parentheses
# Protocol: Hypotensive Activity in Spontaneously Hypertensive Rats
# The novel compounds of the present invention are active hypotensive agents and were tested for hypotensive activity by the method of P. S. Chan and D. Poorvin, Clinical and Experimental Hypertension, 1 (6), 817-830 (1979). Male, 16 week old, spontaneously hypertensive rats of the Okamoto strain, from Taconic Farms, Germantown, N.Y., having an average mean arterial blood pressure of 170 ±1.5 mm of mercury are used in the test. One to 3 rats are used per test compound. A rat is dosed by gavage with a test compound, suspended in approximately 2% pre-boiled starch at a concentration of about 50 mg/ml, at a dose of about 100 mg/kg of body weight or less, with approximately 0.9% sodium chloride loading at a dose of about 25 ml/kg of body weight. A second identical dose of the test compound, without sodium chloride loading, is given about 24 hours later. At about 28 hours after the initial dose the mean arterial blood pressure is measured by the method of Chan and Poorvin vide supra. The procedure is repeated in a second and third rat when necessary.
row,Compound,MABP (mean arterial blood pressure) [mm Hg]
1,"O=C1c2ccccc2C(=O)N1CCCCn1cncn1 [2-[4-(1H-1,2,4-triazol-1-yl)butyl]-1H-isoindol-1,3(2H)-dione]",119
2,"O=C(NCCCCn1cncn1)c1ccc(Cl)c(Cl)c1 [Example 5, 3,4-Dichloro-N-[4-(1H-1,2,4-triazol-1-yl)butyl]benzamide]",141
3,"O=C(NCCCCn1cncn1)c1ccccc1-c1ccccc1 [Example 6, N--[4-(1H--1,2,4-triazol-1-yl)butyl] [1,1'-biphenyl]-2-carboxamide, fumarate]",145
4,"O=C(NCCCCn1cncn1)c1ccc(Br)cc1 [Example 8, 4-bromo-N--[4-(1H--1,2,4-triazol-1-yl)butyl]benzamide]",137
5,"O=C(NCCCn1cncn1)c1ccc(Cl)c(Cl)c1 [Example 12, 3,4-Dichloro-N-[3-(1H-1,2,4-triazol-1-yl)propyl]benzamide]",150
6,"CC(C)(C)c1ccc(C(=O)NCCCn2cncn2)cc1 [Example 13, 4-(1,1-dimethylethyl)-N--[3-(1H--1,2,4-triazol-1-yl)propyl]benzamide]",123
7,"N#Cc1ccc(C(=O)NCCCn2cncn2)cc1 [Example 19, 4-cyano-N--[3-(1H--1,2,4-triazol-1-yl)propyl]benzamide]",119
8,"Cc1ccc(C(=O)NCCCn2cncn2)cc1 [Example 21, 4-methyl-N--[3-(1H--1,2,4-triazol-1-yl)propyl]benzamide]",145
9,"O=C(NCCCn1cncn1)c1ccc(Br)cc1 [Example 23, 4-bromo-N--[3-(1H--1,2,4-triazol-1-yl)propyl]benzamide]",147
10,"O=C(NCCCn1cncn1)c1ccccc1 [Example 24, N--[3-(1H--1,2,4-triazol-1-yl)propyl]benzamide]",124
11,"O=C(NCCCn1cncn1)c1ccc(I)cc1 [Example 27, 4-Iodo-N-[3-(1H-1,2,4-triazol-1-yl)propyl]benzamide]",128
12,"O=C(C=Cc1ccc(Cl)cc1)NCCCn1cncn1 [Example 29, 3-(4-chlorophenyl)-N--[3-(1H--1,2,4-triazol-1-yl)propyl]-2-propenamide]",137
13,"CS(=O)(=O)c1ccc(C(=O)NCCCn2cncn2)cc1 [Example 32, 4-(methylsulfonyl)-N--[3-(1H--1,2,4-triazol-1-yl)propyl]benzamide]",110
14,"CN(C)c1ccc(C(=O)NCCCn2cncn2)cc1 [Example 37, 4-(dimethylamino)-N--[3-(1H--1,2,4-triazol-1-yl)propyl]benzamide]",117
15,"O=C(Cc1cccc2ccccc12)NCCCCn1cncn1 [N--[4-(1H--1,2,4-triazol-1-yl)butyl]-1-naphthalene acetamide, fumarate]",134
